ChEMBL document CHEMBL1154771, “Discovery of the first series of small molecule H5N1 entry inhibitors” (J Med Chem, 2009)

Columns and labels:
Format in all cases: cell-based
A549 [1] = assay: Inhibition of Vesicular stomatitis virus envelope glycoprotein-mediated viral entry into human A549 cells assessed as infectivity at 10 uM after 48 hrs postinfection by luciferase assay relative to control; parameters: scale not given: the % may be the effect or the level left
A549 [2] = assay: Inhibition of Influenza A virus (A/Bar-headed Goose/Qinghai/59/05(H5N1)) hemagglutininin-mediated viral entry into human A549 cells assessed as infectivity at 10 uM after 48 hrs postinfection by luciferase assay relative to control; parameters: scale not given: the % may be the effect or the level left
A549 [3] = assay: Inhibition of Influenza A virus (A/Viet Nam/1203/2004(H5N1)) hemagglutininin-mediated viral entry into human A549 cells assessed as infectivity at 10 uM after 48 hrs postinfection by luciferase assay relative to control; parameters: scale not given: the % may be the effect or the level left
[4] = Inhibition of Influenza A virus (A/Viet Nam/1203/2004(H5N1)) hemagglutininin-mediated viral entry into human A549 cells assessed as luciferase activity after 48 hrs postinfection by luminometry
[5] = Inhibition of Influenza A virus (A/Bar-headed Goose/Qinghai/59/05(H5N1)) hemagglutininin-mediated viral entry into human A549 cells assessed as luciferase activity after 48 hrs postinfection by luminometry

Structure (SMILES) | Activity (A549 [1]) | Activity (A549 [2]) | Activity (A549 [3]) | IC50 [4] | IC50 [5]
COC(=O)[C@]12CCC(C)(C)C[C@H]1C1=CC[C@@H]3[C@@]4(C)CC[C@H](O[C@@H]5O[C@H](CO)[C@@H](O[C@@H]6O[C@@H](C)[C@H](O)[C@@H](O)[C@H]6O)[C@H](O)[C@H]5O[C@@H]5O[C@@H](C)[C@H](O)[C@@H](O)[C@H]5O)C(C)(C)[C@@H]4CC[C@@]3(C)[C@]1(C)CC2 | 48.4% | 35.3% | 17.5% | – | –
C[C@@H]1CC[C@@]2(OC1)O[C@H]1C[C@H]3[C@@H]4C[C@H](O)[C@H]5C[C@@H](O[C@@H]6O[C@H](CO)[C@@H](O[C@@H]7O[C@@H](C)[C@H](O)[C@@H](O)[C@H]7O)[C@H](O)[C@H]6O[C@@H]6O[C@@H](C)[C@H](O)[C@@H](O)[C@H]6O)CC[C@]5(C)[C@H]4CC[C@]3(C)[C@H]1[C@@H]2C | 111% | 42.6% | 36.3% | 7.84 µM | 7.22 µM
C[C@@H]1CC[C@@]2(OC1)O[C@H]1C[C@H]3[C@@H]4C[C@H](O)[C@H]5C[C@@H](O[C@@H]6O[C@H](CO)[C@@H](O[C@@H]7O[C@@H](C)[C@H](O)[C@@H](O)[C@H]7O)[C@H](O)[C@H]6O)CC[C@]5(C)[C@H]4CC[C@]3(C)[C@H]1[C@@H]2C | 117% | 98.2% | 87.4% | – | –
C[C@@H](CO)CC[C@H]1O[C@H]2C[C@H]3[C@@H]4C[C@H](O)[C@H]5C[C@@H](O[C@@H]6O[C@H](CO)[C@@H](O[C@@H]7O[C@@H](C)[C@H](O)[C@@H](O)[C@H]7O)[C@H](O)[C@H]6O[C@@H]6O[C@@H](C)[C@H](O)[C@@H](O)[C@H]6O)CC[C@]5(C)[C@H]4CC[C@]3(C)[C@H]2[C@@H]1C | 111% | 97.9% | 102% | – | –
C[C@@H]1CC[C@@]2(OC1)O[C@H]1C[C@H]3[C@@H]4C[C@H](O)[C@H]5C[C@@H](O[C@@H]6O[C@H](CO)[C@@H](O)[C@H](O)[C@H]6O[C@@H]6O[C@@H](C)[C@H](O)[C@@H](O)[C@H]6O)CC[C@]5(C)[C@H]4CC[C@]3(C)[C@H]1[C@@H]2C | 122% | 61% | 57.9% | – | –
CC(=O)O[C@H]1C[C@@H]2[C@H](CC[C@]3(C)[C@@H]4[C@H](C[C@@H]23)O[C@]2(CC[C@@H](C)CO2)[C@H]4C)[C@@]2(C)CC[C@H](O[C@@H]3O[C@H](CO)[C@@H](O[C@@H]4O[C@@H](C)[C@H](O)[C@@H](O)[C@H]4O)[C@H](O)[C@H]3O[C@@H]3O[C@@H](C)[C@H](O)[C@@H](O)[C@H]3O)C[C@H]12 | 101% | 50.4% | 46.6% | 9.25 µM | 7.58 µM
CCC(/C=C/[C@@H](C)[C@H]1CC[C@H]2[C@@H]3CC=C4C[C@@H](O[C@@H]5O[C@H](CO)[C@@H](O[C@@H]6O[C@@H](C)[C@H](O)[C@@H](O)[C@H]6O)[C@H](O)[C@H]5O[C@@H]5O[C@@H](C)[C@H](O)[C@@H](O)[C@H]5O)CC[C@]4(C)[C@H]3CC[C@]12C)C(C)C (stereo partly specified) | 76.2% | 73.6% | 64.6% | – | –
C[C@@H]1O[C@@H](O[C@H]2[C@H](O[C@H]3CC[C@@]4(C)C(=CC[C@@H]5[C@@H]4CC[C@]4(C)C(=O)CC[C@@H]54)C3)O[C@H](CO)[C@@H](O[C@@H]3O[C@@H](C)[C@H](O)[C@@H](O)[C@H]3O)[C@@H]2O)[C@H](O)[C@H](O)[C@H]1O | 100% | 108% | 106% | – | –
Cc1cn([C@H]2C[C@H](N=[N+]=[N-])[C@@H](CO)O2)c(=O)[nH]c1=O [ZIDOVUDINE] | 0.015% | – | – | 0.011 µM | 0.012 µM
COC(=O)[C@]12CC[C@@H](C)[C@H](C)[C@H]1C1=CC[C@@H]3[C@@]4(C)CC[C@H](O[C@@H]5O[C@H](CO)[C@@H](O[C@@H]6O[C@@H](C)[C@H](O)[C@@H](O)[C@H]6O)[C@H](O)[C@H]5O[C@@H]5O[C@@H](C)[C@H](O)[C@@H](O)[C@H]5O)C(C)(C)[C@@H]4CC[C@@]3(C)[C@]1(C)CC2 | 86% | 37.7% | 43.3% | 8.54 µM | 6 µM
